Article PMC9283133, “Human cytosolic transaminases: side activities and patterns of discrimination towards physiologically available alternative substrates” (Cellular and Molecular Life Sciences: CMLS, 2022)

Legend:
[1] = target: T1, PSAT1 (Homo sapiens, UniProt Q9Y617); experiment: end-point GDH assay of alpha-ketoglutarate; LC-MS of product; assay type: biochemical; conditions: L-Glu 1 mM as donor; pH 7.2, 37 C, 16 h
T1 sequence (Q9Y617 1-370): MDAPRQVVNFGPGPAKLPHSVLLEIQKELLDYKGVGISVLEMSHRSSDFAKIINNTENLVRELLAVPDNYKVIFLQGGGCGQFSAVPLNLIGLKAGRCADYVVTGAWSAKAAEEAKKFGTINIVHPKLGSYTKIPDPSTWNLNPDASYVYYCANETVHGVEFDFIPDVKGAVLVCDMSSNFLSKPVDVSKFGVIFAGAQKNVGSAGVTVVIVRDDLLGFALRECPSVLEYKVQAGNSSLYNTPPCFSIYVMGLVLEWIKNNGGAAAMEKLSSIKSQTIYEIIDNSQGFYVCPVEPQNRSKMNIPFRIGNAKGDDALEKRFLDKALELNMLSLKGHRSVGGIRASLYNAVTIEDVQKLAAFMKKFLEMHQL

[2] = target: T2, MDH1 (cytosolic malate dehydrogenase) (Homo sapiens, UniProt P40925); experiment: spectrophotometric reduction with NADH; assay type: biochemical
T2 construct: from human kidney cDNA, pET28a, His6-tagged, expressed in E. coli BL21(DE)
T2 sequence (P40925 2-334): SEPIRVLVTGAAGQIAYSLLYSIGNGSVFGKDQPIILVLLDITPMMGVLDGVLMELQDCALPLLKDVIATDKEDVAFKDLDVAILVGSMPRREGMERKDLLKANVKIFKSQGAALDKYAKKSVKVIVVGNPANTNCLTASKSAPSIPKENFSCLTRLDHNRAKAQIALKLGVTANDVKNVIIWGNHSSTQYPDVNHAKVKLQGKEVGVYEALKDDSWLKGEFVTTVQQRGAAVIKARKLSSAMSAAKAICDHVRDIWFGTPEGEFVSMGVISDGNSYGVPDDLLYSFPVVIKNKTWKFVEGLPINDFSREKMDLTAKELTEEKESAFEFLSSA

[3] = target: T3, TAT (tyrosine aminotransferase) (Homo sapiens, UniProt P17735); experiment: continuous coupled assay with MDH1 and NADH; assay type: biochemical; conditions: alpha-ketoglutarate 0.5 mM as acceptor; pH 8.0; read-out: apparent KM
T3 sequence (P17735 41-454): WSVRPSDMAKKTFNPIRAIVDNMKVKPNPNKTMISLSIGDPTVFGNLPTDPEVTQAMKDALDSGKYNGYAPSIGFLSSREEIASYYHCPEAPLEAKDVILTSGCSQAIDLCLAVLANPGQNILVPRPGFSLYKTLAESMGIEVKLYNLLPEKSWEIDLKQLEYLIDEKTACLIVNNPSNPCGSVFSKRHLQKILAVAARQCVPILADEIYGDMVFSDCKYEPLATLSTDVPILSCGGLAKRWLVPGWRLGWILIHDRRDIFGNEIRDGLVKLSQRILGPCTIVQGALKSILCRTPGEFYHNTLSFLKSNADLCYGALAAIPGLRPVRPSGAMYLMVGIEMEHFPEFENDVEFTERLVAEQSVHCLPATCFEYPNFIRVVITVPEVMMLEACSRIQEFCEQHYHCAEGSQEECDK
Excerpt: continuous coupled assay with MDH1 and NADH on TAT (tyrosine aminotransferase) | the opposite is true for TAT (Fig. 3A)

[4] = target: T4, LDHA (lactate dehydrogenase A) (Homo sapiens, UniProt P00338); experiment: spectrophotometric reduction with NADH; assay type: biochemical
T4 construct: gift clone

[5] = substrate: N[C@@H](Cc1c[nH]c2ccccc12)C(=O)O; experiment: continuous coupled assay with MDH1 and NADH; assay type: biochemical, Homo sapiens; conditions: pyruvate 3 mM as acceptor, pH 8.0

O=C(CO)COP(=O)(O)O [DHAP]
end-point GDH assay of alpha-ketoglutarate; LC-MS of product [1]: DHAP, which reacted primarily with PSAT1

O=C(O)C(=O)Cc1c[nH]c2ccccc12 [IndPy]
spectrophotometric reduction with NADH [2]: recombinant MDH1 reduced with good efficiency IndPy

N[C@@H](Cc1c[nH]c2ccccc12)C(=O)O [L-Trp]
Km [3]: > 10 mM

CC(O)C(=O)C(=O)O (stereo not drawn) [3-hydroxy-2-ketobutyrate]
spectrophotometric reduction with NADH [4]: 3-hydroxy-2-ketobutyrate, is a substrate for LDHA

B1: GTK (glutamine transaminase K; KYAT1) (Homo sapiens) (protein)
chain: MAKQLQARRLDGIDYNPWVEFVKLASEHDVVNLGQGFPDFPPPDFAVEAFQHAVSGDFMLNQYTKTFGYPPLTKILASFFGELLGQEIDPLRNVLVTVGGYGALFTAFQALVDEGDEVIIIEPFFDCYEPMTMMAGGRPVFVSLKPGPIQNGELGSSSNWQLDPMELAGKFTSRTKALVLNTPNNPLGKVFSREELELVASLCQQHDVVCITDEVYQWMVYDGHQHISIASLPGMWERTLTIGSAGKTFSATGWKVGWVLGPDHIMKHLRTVHQNSVFHCPTQSQAAVAESFEREQLLFRQPSSYFVQFPQAMQRCRDHMIRSLQSVGLKPIIPQGSYFLITDISDFKRKMPDLPGAVDEPYDRRFVKWMIKNKGLVAIPVSIFYSVPHQKHFDHYIRFCFVKDEATLQAMDEKLRKWKVEL
notes: cytosolic enzyme
Km [5]: 0.14 ± 0.03 mM | kcat/Km [5]: 490 ± 30 M⁻¹ s⁻¹
